Patent publication US12697353B2, “Compositions comprising cinnamaldehyde and zinc and methods of using such compositions” (SOCIÉTÉ DES PRODUITS NESTLÉ S.A., priority 2015, dated 2026)

Experiments:
[1] = nose temperature after ingestion in human subjects; assay type: in vivo; conditions: fifteen minutes following ingestion, FIG. 7
Method: The nose temperature of the subjects was analyzed over the fifteen minutes following ingestion of the various compounds.

[2] = target: T1, hTRPA1 expressed in CHO cells (Homo sapiens, UniProt O75762); test: in vitro activity of hTRPA1 expressed in CHO cells, intracellular calcium concentration with a fluorescent dye; assay type: cell-based; set-up: dose or concentration left out as unconfirmed; conditions: according to a dose-response curve
T1 construct: expressed in transfected cells; host or cells: CHO cells

[3] = energy expenditure after ingestion in human subjects; assay type: in vivo
Method: Human subjects were administered placebo, a cooling flavor, capsaicin, or cinnamaldehyde. The energy expenditure was measured over the eighty minutes following ingestion. […] The increased sympathetic activity identified by measuring the facial temperature (increased blood flow on the chin) might explain the increased energy expenditure measured by indirect calorimetry.

[4] = postprandial fat oxidation after ingestion in human subjects; assay type: in vivo
Method: The postprandial fat oxidation was measured over the 90 minutes following ingestion of the various compounds.

[5] = chin temperature after ingestion in human subjects; assay type: in vivo; conditions: eighty minutes following ingestion, FIG. 8
Method: The chin temperature of the subjects was measured over the eighty minutes following ingestion of the various compounds.

[6] = insulin sensitivity in mice with chronic ingestion of cinnamaldehyde in a high fat diet; assay type: in vivo; conditions: mice chronically fed a high fat diet containing 0.2 wt % cinnamaldehyde, FIG. 11
Text: The composition can thereby reduce glycemia.

[7] = target: TRPA1 (Homo sapiens, UniProt O75762); conditions: read-out: EC50 of TRPA1 activation; cited from earlier work
[8] = at a flavoring level judged significantly less intense than capsaicin

T1 sequence (O75762 whole entry): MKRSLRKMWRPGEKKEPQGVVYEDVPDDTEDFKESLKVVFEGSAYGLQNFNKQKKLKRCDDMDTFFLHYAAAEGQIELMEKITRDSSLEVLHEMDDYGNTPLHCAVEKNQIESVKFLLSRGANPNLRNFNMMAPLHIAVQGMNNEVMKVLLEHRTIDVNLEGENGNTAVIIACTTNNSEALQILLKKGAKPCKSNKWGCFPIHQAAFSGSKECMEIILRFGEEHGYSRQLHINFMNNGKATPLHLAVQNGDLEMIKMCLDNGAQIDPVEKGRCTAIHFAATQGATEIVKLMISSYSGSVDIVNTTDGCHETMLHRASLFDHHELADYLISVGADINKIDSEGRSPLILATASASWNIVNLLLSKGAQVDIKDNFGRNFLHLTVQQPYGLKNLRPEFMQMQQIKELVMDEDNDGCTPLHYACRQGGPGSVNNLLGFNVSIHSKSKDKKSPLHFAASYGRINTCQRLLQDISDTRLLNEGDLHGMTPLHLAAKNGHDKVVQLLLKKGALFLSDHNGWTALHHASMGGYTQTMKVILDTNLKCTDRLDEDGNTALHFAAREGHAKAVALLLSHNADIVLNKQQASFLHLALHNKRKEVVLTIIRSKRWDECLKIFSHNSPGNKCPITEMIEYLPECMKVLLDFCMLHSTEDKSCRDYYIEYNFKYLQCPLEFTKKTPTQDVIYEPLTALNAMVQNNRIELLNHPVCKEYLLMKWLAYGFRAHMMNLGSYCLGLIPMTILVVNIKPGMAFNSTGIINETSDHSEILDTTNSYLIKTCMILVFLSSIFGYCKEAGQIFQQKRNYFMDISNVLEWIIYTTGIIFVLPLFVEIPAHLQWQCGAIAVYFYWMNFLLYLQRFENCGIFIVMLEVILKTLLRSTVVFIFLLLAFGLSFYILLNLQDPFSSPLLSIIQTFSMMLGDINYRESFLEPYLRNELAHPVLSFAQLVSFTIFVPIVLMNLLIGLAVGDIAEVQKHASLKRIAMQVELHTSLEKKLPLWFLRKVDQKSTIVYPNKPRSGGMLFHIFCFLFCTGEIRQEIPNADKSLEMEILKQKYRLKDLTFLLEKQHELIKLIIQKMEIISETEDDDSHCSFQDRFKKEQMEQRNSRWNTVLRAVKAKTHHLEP
Sequence of TRPA1 (O75762 whole entry, species assumed): as the sequence (O75762 whole entry) above

Structure (SMILES)	nose temperature [1]	efficacy on hTRPA1 of the positive control C+ [2]	impact on energy expenditure and sympathetic nervous system activity compared to capsaicin [3, 8]	energy expenditure compared to placebo ([3]; human subjects, eighty minutes following ingestion, time course and AUC, FIGS. 3 and 4)	effect on fat oxidation compared to capsaicin [4, 8]	postprandial fat oxidation compared to placebo ([4]; human subjects, 90 minutes following ingestion, time course and AUC, FIGS. 5 and 6)	chin temperature relative to baseline [5]	insulin sensitivity relative to mice fed the same high fat diet without cinnamaldehyde [6]	EC50 [7]
COc1cc(CNC(=O)CCCC/C=C/C(C)C)ccc1O [capsaicin, reference compound]	increase nose temperatures								
O=CC=Cc1ccccc1 [cinnamaldehyde]	increase nose temperatures	maximum efficacy	significantly higher impact	increased	equivalent effect	maintained at higher levels	increases chin temperature for a prolonged time	improved insulin sensitivity	~10 µM
